According to US11236120B2, “Azithromycin derivatives with epithelial barrier enhancement properties” (EpiEndo Pharmaceuticals ehf, priority 2015, dated 2022):
Converted amounts (≈) assume the structure as drawn. “Also recorded” adds a separate entry of the source. One block for each molecule: values may come before it.

Columns and labels:
[1] = Stability in human plasma; assay type: in vitro ADME; conditions: room temperature
Method: Stability in Mouse and Human Plasma
The stability of the compounds in mouse and human plasma was performed using protein precipitation as sample clean-up and HPLC-MS detection. The plasma stability studies of the compounds was performed at room temperature for up to 4 hours. A stock solution of […] in DMSO was prepared for each compound. For the plasma stability samples, 100 μL of the stock solution was diluted with 3.9 mL of either mouse or human plasma to a final concentration of […]. The plasma was left to equilibrate for 10 minutes at room temperature before the first analysis. For each analyzed time point ([…]) a 100 μL aliquot of the plasma was removed and protein precipitation (PPT) was performed on the aliquot by adding 900 μL of (ACN:DMSO) 95:5. The precipitated sample was shaken for 60 seconds and then centrifuged. The supernatant was transferred to an HPLC vial and analyzed using HPLC-MS. The chromatographic signal area of the samples at the different time points were then compared against each other, by setting the initial analysis at t=0 min as 100% and then calculating the %-value for each subsequent time point.
(§1) The chromatographic separation was performed on a Waters HPLC-MS system using a 50×2.1 mm×Bridge C18 column and a gradient elution of Water with 0.1% formic acid and acetonitrile with 0.1% formic acid. The analytes were analyzed in positive electro-spray mode using the (M+H)^+ in single ion recording.

[2] = test system: barrier integrity in the lungs of mice under sulphur dioxide insult; experiment: Barrier integrity enhancement in the lung: HSA leakage into BAL after sulphur dioxide insult; assay type: in vivo
Method: The effect of compounds of the invention on maintenance of barrier integrity in the lungs of mice under sulphur dioxide insult was investigated.
1. 15 female mice were randomised into 3 groups of 5 mice. The three groups were: • a) Control group • b) Azithromycin treatment group • c) Investigational compound treatment group
2. The mice were pre-treated for three days with: • a) Placebo (Phosphate buffered saline—PBS) given at a dose of 10 mg/kg in an intravenous injection of 100 μl three times per week. • b) Azithromycin: given at a dose of 10 mg/kg in an intravenous injection of 100 μl three times per week. • c) The compound of Example 2: given at a dose of 10 mg/kg in an intravenous injection of 100 μl three times per week.
3. One mouse in each group was set to one side as a control. Four mice were then exposed to sulphur dioxide gas at a concentration of 200 ppm in air for a period of 60 minutes. The mice were in a cage that was inserted into a 45 L treatment box with a removable lid, a gas feed line and a gas exhaust vent. […] The gas was premixed from bottled air and bottled 200 ppm SO2 in a first box and then fed into the treatment box. The level of SO2 being fed into the treatment box can be varied by adjusting the relative flow of air and SO2 from the two source cylinders. As the sulphur dioxide concentration in this experiment was 200 ppm, it was used neat, with no additional air being mixed with it. The mice had access to food and water for the duration of the treatment.
4. 24 hours after the end of the treatment, 1 mg of human serum albumin (HSA) in 100 μl saline was injected into the tail vein of each mouse, and fluorescent dextrans (FDs) were injected into the airways. The mice were then kept sedated for 90 minutes.
5. After 90 minutes, the mice were sacrificed via exsanguination. Plasma and bronchoalveolar lavage (BAL) were collected and the lungs were processed for paraffin embedding.
6. The level of HSA in the BAL was quantified by ELISA. The ELISA test used was the one commercially available from abcam (Human Serum Albumin kit ab179887). In line with the kit manufacturer's instructions, absorbance at […] was measured. Fluorescent dextrans are quantified using a fluorescent plate reader.
The level of HSA that leaks into the lungs, as found in the BAL, is a measure of the integrity of the lung epithelial barrier.
In the placebo group, there were experimental difficulties with two of the four mice; in the Azithromycin group, there were experimental difficulties with one of the four mice; and in the investigational compound group, there were experimental difficulties with two of the four mice. Therefore, results were obtained from two mice in each of the placebo and investigational compound groups, and from three mice in the Azithromycin group.

[3] = Solubility in 10 mM phosphate buffer (pH 7.4); assay type: physicochemical; conditions: pH 7.4, aqueous buffer, kinetic from dmso stock, 60 minutes at room temperature, filtered, read-out: MTS Solubility in Buffer (pH 7.4)
Method: Solubility in 10 mM Phosphate Buffer (pH 7.4)
The solubility sample testing of the compounds was performed by in phosphate buffer at pH 7.4 and using HPLC-MS detection. A stock solution of […] in DMSO was prepared for each compound. For the solubility test sample, 100 μL of the stock solution was diluted with 3.9 mL of a 10 mM phosphate buffer at […] to a final concentration of […]. The buffer solution was left to stand for 60 minutes at room temperature and then filtered. The filtrate was analyzed against two calibration points of the same analyte prepared at […] using HPLC-MS. These calibration points were prepared from the same stock solution as the solubility sample by diluting it with DMSO:H2O (1:1) 1:40 and then again 1:10. The chromatographic signal area of the analyte in the solubility sample was then compared to the chromatographic signal area of the two calibration samples.
as §1

[4] = test system: epithelial cells in vitro ALI culture; conditions: cited from earlier work
[5] = test system: Mycobacterium avium complex (MAC); experiment: Assay 2: STC colorimetric microplate assay, comparison over the Mycobacteria studied; assay type: cell-based; conditions: all four strains of M. avium and M. intracellulare

Degradation in Human Plasma at RT [1]: Stable
solubility at 60 min [3]: 3.62 µM (≈ 2.52 µg/mL)
Molecule: CC[C@H]1OC(=O)[C@H](C)[C@@H](O)[C@H](C)[C@@H](O[C@@H]2O[C@H](C)C[C@H](N(C)C)[C@H]2OC(=O)c2ccccc2)[C@](C)(O)C[C@@H](C)CN(C)[C@H](C)[C@@H](O)[C@]1(C)O [Example 2]
HSA level - absorbance at 600 nm ([2]; HSA in BAL by ELISA, mice, 10 mg/kg intravenous, 200 ppm SO2 for 60 minutes): 0.373 ± 0.037
leakage of HSA into the lung following SO2 insult ([2]; compared with control, FIG. 1): reduced compared with the control; also recorded: reduced compared with a control
HSA level - absorbance at 600 nm relative to control ([2]; relative to PBS control, mice, 10 mg/kg intravenous, 200 ppm SO2 for 60 minutes): 0.640 ± 0.058

Molecule: CC[C@H]1OC(=O)[C@H](C)[C@@H](O[C@H]2C[C@@](C)(OC)[C@@H](O)[C@H](C)O2)[C@H](C)[C@@H](O[C@@H]2O[C@H](C)C[C@H](N(C)C)[C@H]2O)[C@](C)(O)C[C@@H](C)C(=O)[C@H](C)[C@@H](O)[C@]1(C)O [Erythromycin]
effect on transepithelial resistance (TER) and cellular processing of tight junctions [4]: not to exhibit similar effects

Molecule: CC[C@H]1OC(=O)[C@H](C)[C@@H](O[C@H]2C[C@@](C)(OC)[C@@H](O)[C@H](C)O2)[C@H](C)[C@@H](O[C@@H]2O[C@H](C)C[C@H](N(C)C)[C@H]2O)[C@](C)(OC)C[C@@H](C)C(=O)[C@H](C)[C@@H](O)[C@]1(C)O [Clarithromycin]
sensitivity of the MAC strains used [5]: sensitive

Molecule: penicillin
effect on transepithelial resistance (TER) and cellular processing of tight junctions [4]: not to exhibit similar effects
